Assay results: patent publication US20090149584A1, “USE OF HEXAHYDROPHTHALIMIDE COMBINATIONS AS SOFTENER” (priority 2006, published 2009)

Tests used:
Format in all cases: physicochemical
[1] = Solution temperature for PVC in accordance with DIN 53408
Excerpt: A particularly important factor for the use of plasticizers is their gelling performance for PVC. Gelling performance is the capability of a plasticizer to penetrate into the polymeric structure of the PVC and to bring about a plasticizing effect by reducing the level of interaction between the polymer chains. A measure of the gelling performance of a plasticizer is the solution temperature for PVC, determined to DIN 53408. The lower the solution temperature, the better the gelling performance. Better gelling performance or lower solution temperature of the plasticizer means that lower processing temperatures can be selected in the production of flexible PVC. Lower temperatures save energy and time.
(§1) In accordance with DIN 53408, the solution temperatures of N-2-ethylhexylhexahydrophthalimide were measured for PVC. For comparison, the solution temperatures of the known plasticizers di(2-ethylhexyl) phthalate and diisobutyl phthalate were determined. Vapor pressure measurements were carried out in accordance with annex A4 to European Commission specification 92/69/ECC, OECD test specification 104 and, respectively, EPA test specification OPPTS 830.7950. The following table compares the results.

[2] = Vapor pressure measurement (annex A4 to 92/69/ECC, OECD 104, EPA OPPTS 830.7950)
Protocol: as §1

Boiling point = assay: Boiling point

Compound | Solution temperature for PVC [1] | Vapor pressure ([2]; 140° C.) | Vapor pressure ([2]; 160° C.) | Vapor pressure ([2]; 180° C.) | Vapor pressure ([2]; 200° C.) | Boiling point (Boiling point)
CCCCC(CC)COC(=O)c1ccccc1C(=O)OCC(CC)CCCC (stereo not shown) [Di(2-ethylhexyl) phthalate, di(2-ethylhexyl) phthalate] | 124 °C | 0.04 hPa | 0.17 hPa | 0.58 hPa | 1.80 hPa | 384 °C
N-2-ethylhexylhexahydrophthalimide | 99 °C |  |  |  |  | 
CC(C)COC(=O)c1ccccc1C(=O)OCC(C)C [Diisobutyl phthalate, diisobutyl phthalate] | 99 °C | 1.50 hPa | 4.20 hPa | 10.70 hPa | 24.40 hPa | 295 °C
